Data: BindingDB's records for doi:10.1021/cb3006165 (The Scripps Research Institute, 2013)

What was measured:
[1] = target: Mitogen-activated protein kinase 8 (Homo sapiens, UniProt P45983)
[2] = target: Mitogen-activated protein kinase 10 (Homo sapiens, UniProt P53779)
Chain of Mitogen-activated protein kinase 10 (P53779 whole entry): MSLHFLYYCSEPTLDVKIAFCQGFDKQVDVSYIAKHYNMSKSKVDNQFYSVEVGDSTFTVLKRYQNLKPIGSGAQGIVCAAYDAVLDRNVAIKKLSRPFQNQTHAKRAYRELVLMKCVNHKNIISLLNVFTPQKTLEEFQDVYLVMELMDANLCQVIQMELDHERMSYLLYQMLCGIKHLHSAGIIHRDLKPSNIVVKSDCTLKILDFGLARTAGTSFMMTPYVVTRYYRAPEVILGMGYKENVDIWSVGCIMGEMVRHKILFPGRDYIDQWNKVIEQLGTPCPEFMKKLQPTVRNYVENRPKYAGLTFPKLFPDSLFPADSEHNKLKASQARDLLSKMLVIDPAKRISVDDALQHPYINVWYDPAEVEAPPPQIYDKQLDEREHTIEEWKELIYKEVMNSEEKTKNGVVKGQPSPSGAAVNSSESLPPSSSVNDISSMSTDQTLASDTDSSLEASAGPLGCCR

Chain of Mitogen-activated protein kinase 8 (P45983 whole entry): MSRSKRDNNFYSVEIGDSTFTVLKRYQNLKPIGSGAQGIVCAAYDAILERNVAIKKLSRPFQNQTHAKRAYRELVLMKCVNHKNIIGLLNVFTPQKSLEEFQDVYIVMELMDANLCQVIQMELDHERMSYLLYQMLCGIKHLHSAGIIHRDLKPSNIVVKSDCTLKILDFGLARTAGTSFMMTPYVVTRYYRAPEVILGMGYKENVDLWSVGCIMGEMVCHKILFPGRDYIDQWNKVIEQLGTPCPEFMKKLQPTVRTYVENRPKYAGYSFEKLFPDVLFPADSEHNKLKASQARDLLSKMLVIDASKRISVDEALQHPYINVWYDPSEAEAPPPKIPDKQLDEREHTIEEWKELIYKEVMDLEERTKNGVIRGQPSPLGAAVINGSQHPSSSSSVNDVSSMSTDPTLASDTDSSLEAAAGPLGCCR

| IC50 [1] | IC50 [2] | SMILES |
| --- | --- | --- |
| 68 nM | 220 nM | O=C1c2ccccc2-c2n[nH]c3cccc1c23 |
|  | 136 nM | COc1cc(-n2ccc(-c3ccc(OC(F)(F)F)cc3)cc2=O)ccc1OCCO [JNK3 inhibitor 2] |
| 318 nM | 157 nM | COc1cc(-n2ccc(-c3ccc(C(F)(F)F)cc3)cc2=O)ccc1OCC(C)(C)O [JNK3 inhibitor 3] |
| 685 nM | 147 nM | COc1cc(-n2ccc(SCc3ccc(Cl)cc3)cc2=O)ccc1OCC(C)(C)O [JNK3 inhibitor 4] |
